Assay: Effects on formazan formation in the xanthine-xanthine oxidase-Nitrotetrazolium Blue system
Format: biochemical
Conditions: for Inhibition ratio (%) of formazan formation: 0.05 M phosphoric acid buffer pH 7.8, 30°C
Description: Test example 2 (Effects on formazan formation in the xanthine-xanthine oxidase-Nitrotetrazolium Blue system)
Specimens were added to a 0.05 M phosphoric acid buffer solution (pH 7.8) containing xanthine, EDTA 2Na and Nitrotetrazolium Blue (NTB) so as to provide the respective final concentrations of 5x10⁻⁵ M, 1x10⁻⁴ M and 5x10⁻⁴ M and warmed at 30°C for 30 minutes. Xanthine oxidase (manufactured by Sigma Corp.) was added, and the resulting mixtures were warmed at 30°C for 10 minutes to colorimetrically determine formazan formed by superoxide anion radicals. The inhibition ratio of formazan formation was determined from the results at concentrations of 0.5 mM and 4 mM of each specimen.

In the case of COC(=O)COC1=C(O)[C@@H]([C@@H]2COC(C)(C)O2)OC1=O [Compound 206, L-5,6-O-isopropylidene-2-O-methylcarbomethylascorbic acid], the “Inhibition ratio (%) of formazan formation” value (Concentration 0.5 mM) is reported as 17.8%, the “Inhibition ratio (%) of formazan formation” value (Concentration 4 mM) is reported as 55.5% and the “formazan formation (result in words)” value (summary of Table-4) is reported as “remarkably inhibited formazan formation”.

Source: patent EP0411182A1, “Ascorbic acid derivative” (NIPPON HYPOX LABORATORIES INCORPORATED, priority 1989, dated 1991)
